Experimental data reported in patent US20240368163A1, “COMPOUNDS AND METHODS FOR MODULATING SPLICING” (REMIX THERAPEUTICS INC., priority 2021, published 2024).

What was measured:
Format in all cases: cell-based, human
MYB [1] = assay: HiBiT protein abundance assay, MYB; details: Homo sapiens, K562, 24 h, Table 13A, modified K562 cells
In short: (§1)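 Tagged-target degradation assay: HiBiT-modified K562 cells treated 24 h with compound, 10 concentrations up to 10 μM final. Following lysis with LgBiT and substrate, luminescence gave normalized abundance; IC50 derived by logistic interpolation at 50%.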

HTT [2] = assay: HiBiT protein abundance assay, HTT; details: Homo sapiens, K562, 24 h, Table 13A, modified K562 cells
In short: as §1

HTT [3] = assay: Splicing RT-qPCR assay, HTT mRNA canonical junction (CJ) and alternative junction (AJ); details: Homo sapiens; for AC50: increase in AJ mRNA
In short: (§2)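 Splicing switch read by one-step RT-qPCR of canonical and alternative exon junctions, housekeeper-normalized (GAPDH/GUSB/PPIA), 2^(−ΔΔCt) vs DMSO as percent response. Cells (A673 or K562) dosed 24 h, 11 points 3-fold from 10 uM, DMSO ≤0.25%.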

MYB [4] = assay: Splicing RT-qPCR assay, MYB mRNA canonical junction (CJ) and alternative junction (AJ); details: Homo sapiens; for AC50: increase in AJ mRNA
In short: as §2

SMN2 = assay: Splicing RT-qPCR panel, SMN2 canonical junction (CJ) mRNA; details: Homo sapiens, RT-qPCR panel, canonical junction mRNA; compound concentration having 50% response in CJ decrease; read-out: SMN2 IC50 (decrease in CJ mRNA levels)
In short: as §2

Target C [5] = assay: HiBiT protein abundance assay, Target C; details: Homo sapiens, K562, 24 h, Table 13A, modified K562 cells
In short: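 Target tagged with HiBiT by knock-in; 24 h dosing, 10 μM top final in 3-fold steps. IC50 from 4PL fit of normalized luminescence.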

Target C [6] = assay: Splicing RT-qPCR panel, Target C canonical junction (CJ) mRNA; details: Homo sapiens, RT-qPCR panel, canonical junction mRNA; compound concentration having 50% response in CJ decrease; read-out: Target C IC50 (decrease in CJ mRNA levels)
In short: as §2

[7] = 24 h, decrease in CJ mRNA, A673 or K562 cells, 24 hours treatment, RT-qPCR, read-out: HTT CJ IC50
[8] = 24 h, A673 or K562 cells, 24 hours treatment, RT-qPCR
[9] = RT-qPCR panel, canonical junction mRNA, compound concentration having 50% response in CJ decrease, read-out: HTT IC50 (decrease in CJ mRNA levels)
[10] = 24 h, decrease in CJ mRNA, A673 or K562 cells, 24 hours treatment, RT-qPCR, read-out: MYB CJ IC50
[11] = RT-qPCR panel, canonical junction mRNA, compound concentration having 50% response in CJ decrease, read-out: MYB IC50 (decrease in CJ mRNA levels)

Row | SMILES | IC50 (MYB [1]) | IC50 (HTT [2]) | IC50 (HTT [3]; [7]) | AC50 (HTT [3]; [8]) | IC50 (HTT [3]; [9]) | IC50 (MYB [4]; [10]) | AC50 (MYB [4]; [8]) | IC50 (MYB [4]; [11]) | IC50 (SMN2) | IC50 (Target C [5]) | IC50 (Target C [6])
1 | c1n[nH]cc1-c1ccc(-c2ccc(N3CCC4(CC3)CNC4)nn2)c2[nH]ncc12 [Compound 238] | > 10 µM | > 10 µM | > 10 µM | > 10 µM | > 10 µM | > 10 µM | > 10 µM | > 10 µM | > 10 µM | > 10 µM | > 10 µM
2 | c1n[nH]cc1-c1ccc(-c2ccc(N3CCC4(CCNCC4)C3)nn2)c2[nH]ncc12 [Compound 239] | > 10 µM | > 10 µM | > 10 µM | > 10 µM | > 10 µM | > 10 µM | > 10 µM | > 10 µM | > 10 µM | > 10 µM | > 10 µM
3 | c1n[nH]cc1-c1ccc(-c2ccc(N3CCC4(CCNC4)CC3)nn2)c2[nH]ncc12 [Compound 240] | > 10 µM | > 10 µM | > 10 µM | > 10 µM | > 10 µM | > 10 µM | > 10 µM | > 10 µM | > 10 µM | > 10 µM | > 10 µM
4 | c1n[nH]cc1-c1ccc(-c2ccc(N3CCNCC3)nn2)c2[nH]ncc12 [Compound 241] | 1 to 10 µM | 1 to 10 µM | > 10 µM | 1 to 10 µM | > 10 µM | > 10 µM | 1 to 10 µM | > 10 µM | 1 to 10 µM | 1 to 10 µM | > 10 µM
5 | CN(c1ccc(-c2ccc(-c3cnn(C)c3)c3cn[nH]c23)nn1)C1CC(C)(C)NC(C)(C)C1 [Compound 243] | 1 to 10 µM | 1 to 10 µM | 1 to 10 µM | 1 to 10 µM | 1 to 10 µM | 1 to 10 µM | 1 to 10 µM | 1 to 10 µM | 0.1 to 1 µM | > 10 µM | > 10 µM
6 | c1n[nH]cc1-c1ccc(-c2ccc(N3CCCC4(CNC4)C3)nn2)c2[nH]ncc12 [Compound 251] | > 10 µM | > 10 µM | > 10 µM | > 10 µM | > 10 µM | > 10 µM | > 10 µM | > 10 µM | > 10 µM | > 10 µM | > 10 µM
7 | c1n[nH]cc1-c1ccc(-c2ccc(N3CCC4(CCCNC4)C3)nn2)c2[nH]ncc12 (stereo not shown) [Compound 252] | 1 to 10 µM | > 10 µM | > 10 µM | > 10 µM | > 10 µM | > 10 µM | > 10 µM | > 10 µM | 1 to 10 µM | > 10 µM | > 10 µM
8 | c1n[nH]cc1-c1ccc(-c2ccc(N3CCCC4(CCNC4)C3)nn2)c2[nH]ncc12 (stereo not shown) [Compound 253] | > 10 µM | > 10 µM | > 10 µM | > 10 µM | > 10 µM | > 10 µM | > 10 µM | > 10 µM | > 10 µM | > 10 µM | > 10 µM
9 | c1n[nH]cc1-c1ccc(-c2ccc(N3C[C@H]4CNC[C@H]4C3)nn2)c2[nH]ncc12 [Compound 254] | > 10 µM | > 10 µM | > 10 µM | > 10 µM | > 10 µM | > 10 µM | 1 to 10 µM | > 10 µM | 0.1 to 1 µM | > 10 µM | > 10 µM
10 | CN1C[C@@H]2CN(c3ccc(-c4ccc(-c5cn[nH]c5)c5cn[nH]c45)nn3)C[C@@H]2C1 [Compound 255] | 1 to 10 µM | 1 to 10 µM | > 10 µM | > 10 µM | > 10 µM | > 10 µM | 1 to 10 µM | > 10 µM | 0.1 to 1 µM | > 10 µM | > 10 µM
11 | c1n[nH]cc1-c1ccc(-c2ccc(NC3CCNCC3)nn2)c2[nH]ncc12 [Compound 263] | > 10 µM | > 10 µM | > 10 µM | > 10 µM | > 10 µM | > 10 µM | > 10 µM | > 10 µM | > 10 µM | > 10 µM | > 10 µM
12 | CN(c1ccc(-c2ccc(-n3cccn3)c3cn[nH]c23)nn1)C1CCNCC1 [Compound 264] | 1 to 10 µM | 1 to 10 µM | > 10 µM | > 10 µM | > 10 µM | > 10 µM | > 10 µM | > 10 µM | 1 to 10 µM | 1 to 10 µM | > 10 µM
13 | c1nc2c(-c3cn[nH]c3)ccc(-c3ccc(N4CCC5(CCN5)C4)nn3)c2s1 (stereo not shown) [Compound 265] | > 10 µM | > 10 µM | > 10 µM | > 10 µM | > 10 µM | 1 to 10 µM | > 10 µM | 1 to 10 µM | 0.1 to 1 µM | > 10 µM | > 10 µM
14 | c1nc2c(-c3cn[nH]c3)ccc(-c3ccc(N4CCC45CCNCC5)nn3)c2s1 [Compound 266] | 1 to 10 µM | 1 to 10 µM | 1 to 10 µM | > 10 µM | 1 to 10 µM | 1 to 10 µM | > 10 µM | 1 to 10 µM | > 10 µM | > 10 µM | > 10 µM
15 | [2H]C([2H])([2H])N(c1ccc(-c2ccc(-c3cn[nH]c3)c3cn[nH]c23)nn1)C1CCNCC1 [Compound 267] | 1 to 10 µM | 1 to 10 µM | > 10 µM | > 10 µM | > 10 µM | > 10 µM | > 10 µM | > 10 µM | 1 to 10 µM | 1 to 10 µM | > 10 µM
16 | CN(c1ccc(-c2ccc(-c3cn[nH]c3)c3cn[nH]c23)nn1)C1CCNCC1 [Compound 273] | 1 to 10 µM | > 10 µM | > 10 µM | > 10 µM | > 10 µM | > 10 µM | > 10 µM | > 10 µM | 1 to 10 µM | 1 to 10 µM | > 10 µM
17 | CCN(c1ccc(-c2ccc(-c3cn[nH]c3)c3cn[nH]c23)nn1)C1CCNCC1 [Compound 274] | 1 to 10 µM | 1 to 10 µM | > 10 µM | > 10 µM | > 10 µM | > 10 µM | > 10 µM | > 10 µM | 1 to 10 µM | 1 to 10 µM | > 10 µM
18 | CC1(C)CC(Nc2ccc(-c3ccc(-c4cn[nH]c4)c4cn[nH]c34)nn2)CC(C)(C)N1 [Compound 275] | 0.1 to 1 µM | 0.1 to 1 µM | 0.1 to 1 µM | 1 to 10 µM | 0.1 to 1 µM | 0.1 to 1 µM | 1 to 10 µM | 0.1 to 1 µM | 0.1 to 1 µM | < 0.1 µM | 1 to 10 µM
19 | c1nc2c(-c3cn[nH]c3)ccc(-c3ccc(N4CCC45CCCNC5)nn3)c2s1 (stereo not shown) [Compound 276] | 1 to 10 µM | 1 to 10 µM | 1 to 10 µM | 1 to 10 µM | 1 to 10 µM | 1 to 10 µM | 1 to 10 µM | 1 to 10 µM | 1 to 10 µM | 1 to 10 µM | 1 to 10 µM
20 | c1nc2c(-c3cn[nH]c3)ccc(-c3ccc(N4CCC45CCNC5)nn3)c2s1 (stereo not shown) [Compound 277] | 1 to 10 µM | > 10 µM | > 10 µM | > 10 µM | > 10 µM | > 10 µM | > 10 µM | > 10 µM | > 10 µM | 1 to 10 µM | > 10 µM
21 | c1cnn(-c2ccc(-c3ccc(N[C@@H]4C[C@H]5CC[C@@H](C4)N5)nn3)c3[nH]ncc23)c1 [Compound 278] | 0.1 to 1 µM | < 0.1 µM |  | 0.1 to 1 µM | < 0.1 µM | 0.1 to 1 µM | 0.1 to 1 µM | 0.1 to 1 µM | < 0.1 µM | < 0.1 µM | 0.1 to 1 µM
22 | CN(c1ccc(-c2ccc(-c3ccn(C)c(=O)c3)c3ncsc23)nn1)C1CC(C)(C)NC(C)(C)C1 [Compound 279] | 1 to 10 µM | 1 to 10 µM | 1 to 10 µM | 1 to 10 µM | 1 to 10 µM | 1 to 10 µM | > 10 µM | 1 to 10 µM | 0.1 to 1 µM | 1 to 10 µM | > 10 µM
